Test: Stability Test of Amorphous Lansoprazole R-Isomer (compatibility with basic substances, appearance change)
Format: physicochemical
Conditions: blending ratio A/base 1/1 (1/0 for No Addition)
Description: (1) 100 mg of amorphous lansoprazole R-isomer was weighed precisely under low humidity environment, and put in a transparent glass bottle. Subsequently, 100 mg of basic substance as a stabilizer of basic inorganic salt shown below was weighed precisely under low humidity environment, and placed in the bottle containing amorphous lansoprazole R-isomer. Then, the bottle was capped, and shaken slightly with hand to mix.
[1] magnesium carbonate MgCO3 [2] calcium carbonate CaCO3 [3] magnesium oxide MgO [4] magnesium hydroxide Mg (OH)2 [5] no basic substance (2) The prepared samples were stored under the condition of 40° C./75% RH (open) for 5 days. Color tones were named and color codes were numbered based on International Color Manual so as to estimate the appearance change of samples everyday. At the end of experiment, the stability was judged by comparing the color tone with that of the sample stored at 5° C. as initial sample. In addition, A represents amorphous lansoprazole R-isomer in Table 2.

With `Cc1c(OCC(F)(F)F)ccnc1C[S@@+]([O-])c1nc2ccccc2[nH]1` [No Addition] the “color tone, Storage conditions initial (5° C. 5 days)” value (100 mg amorphous lansoprazole R-isomer (A) + 100 mg basic substance, stored at 5° C. as initial sample) was “pale greenish”, the “appearance change after 40° C./75% RH 5 days compared with initial sample (5° C.)” value (40° C./75% RH (open), 5 days) was “(changed)” and the “color tone, Storage conditions 40° C./75% RH 5 days” value (40° C./75% RH (open), 5 days) was “pale yellow”.

— patent US20140205670A1, “STABLE SOLID PREPARATIONS” (TAKEDA PHARMACEUTICAL COMPANY LIMITED, priority 2002, published 2014)
